Data: patent US10221129B2, “Inhibitors of human immunodeficiency virus replication” (ViiV HEALTHCARE UK (NO.5) LIMITED, priority 2015, dated 2019)
Like-named read-outs stand apart in the source and are kept apart here.

Experiments:
Assay type in all cases: cell-based
uninfected MT2 cells = assay: Compound cytotoxicity, XTT-based colorimetric assay; conditions: day 4, XTT
How it was run: (§1)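 Run under the antiviral-assay protocol but without virus. Viability was read on day 4 and CC50 values were derived from the readout.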

[1] = test system: recombinant NL4-3 virus (nef section replaced with Renilla luciferase gene) in MT-2 cells; assay: HIV cell culture assay (antiviral activity, luciferase readout)
How it was run: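 Serial compound dilutions tested in MT-2 cells infected for 4-5 days with 293T-derived NL4-3 virus carrying Renilla luciferase in place of part of nef. Antiviral activity quantified as luciferase activity, read with a live-cell substrate.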

[2] = Compound cytotoxicity, XTT-based colorimetric assay; conditions: human, uninfected MT2 cells, day 4, XTT
How it was run: as §1

[3] = MT-2 cells infected for 4-5 days with recombinant NL4-3 Renilla luciferase virus
[4] = Renilla, NL43, MT-2 cells infected for 4-5 days with recombinant NL4-3 Renilla luciferase virus
[5] = MT-2 cells infected for 4-5 days with recombinant NL4-3 Renilla luciferase virus, read-out: EC50

| Compound | CC50 (uninfected MT2 cells) | EC50 [1, 3] | EC50 [1, 4] | EC50 [1, 5] | CC50 at 4 days [2] |
| --- | --- | --- | --- | --- | --- |
| CC1CCc2ccccc2N1S(=O)(=O)NC(=O)N[C@@H](Cc1cc(F)cc(F)c1)C(=O)N(C)c1ccc2scnc2c1 (single isomer, unassigned) [VN-11] | 93.5 µM | 90 nM | – | – | – |
| CC1CCc2ccccc2N1S(=O)(=O)NC(=O)N[C@@H](Cc1cc(F)cc(F)c1)C(=O)N(C)c1ccc2scnc2c1 (single isomer, unassigned) [VN-10] | > 33.3 µM | – | 100 nM | – | – |
| CN(C(=O)[C@H](Cc1cc(F)cc(F)c1)NC(=O)NS(=O)(=O)N1CCc2cncnc21)c1ccc2scnc2c1 [VN-19] | 70.5 µM | – | – | 680 nM | – |
| CN(C(=O)[C@H](Cc1cc(F)cc(F)c1)NC(=O)NS(=O)(=O)n1ccc2cncnc21)c1ccc2scnc2c1 [VN-20] | > 100 µM | – | – | 940 nM | – |
| CC1CN(S(=O)(=O)NC(=O)N[C@@H](Cc2cc(F)cc(F)c2)C(=O)N(C)c2ccc3scnc3c2)c2ncccc21 (single isomer, unassigned) [VN-15] | > 100 µM | – | 30 nM | – | – |
| CN(C(=O)[C@H](Cc1cc(F)cc(F)c1)NC(=O)NS(=O)(=O)N1CCCC1c1ccccn1)c1ccc2scnc2c1 (single isomer, unassigned) [VN-2] | > 100 µM | 610 nM | – | – | – |
| CN(C)C(=O)C1Cc2cccnc2N1S(=O)(=O)NC(=O)N[C@@H](Cc1cc(F)cc(F)c1)C(=O)N(C)c1ccc2scnc2c1 (single isomer, unassigned) [BB-29] | > 100 µM | 2430 nM | – | – | – |
| CN(C(=O)[C@H](Cc1cc(F)cc(F)c1)NC(=O)NS(=O)(=O)N1CCCC1c1ccccc1)c1ccc2scnc2c1 (single isomer, unassigned) [VN-4] | 57.5 µM | 190 nM | – | – | – |
| COc1ccc(N(C)C(=O)[C@H](Cc2ccccc2)NC(=O)NS(=O)(=O)NCc2nccs2)cc1 [JB-43] | – | – | 760 nM | – | > 100 µM |
| COc1ccc(N(C)C(=O)[C@H](Cc2ccccc2)NC(=O)NS(=O)(=O)Nc2cc(F)cc(F)c2)cc1 [JB-46] | – | – | 80 nM | – | > 100 µM |
| COc1ccc(N(C)C(=O)[C@H](Cc2ccccc2)NC(=O)NS(=O)(=O)NC(C)c2cccnc2)cc1 (stereo partly drawn) [JB-65] | – | – | 620 nM | – | > 100 µM |
| CN(C(=O)[C@H](Cc1cc(F)cc(F)c1)NC(=O)NS(=O)(=O)N1CCC[C@H]1CO)c1ccc2scnc2c1 [CA-131] | – | – | 210 nM | – | > 100 µM |
| COc1ccc(N(C)C(=O)[C@H](Cc2ccccc2)NC(=O)NS(=O)(=O)N(C)c2ccccc2)cc1 [JB-3] | – | – | 130 nM | – | > 100 µM |
| CN(C(=O)[C@H](Cc1cc(F)cc(F)c1)NC(=O)NS(=O)(=O)N1CC[C@@H](O)C1)c1ccc2scnc2c1 [VN-27] | – | – | 90 nM | – | > 100 µM |
| CN(C(=O)[C@H](Cc1cc(F)cc(F)c1)NC(=O)NS(=O)(=O)N1CCc2ccccc2C1)c1ccc2scnc2c1 [CA-157] | – | – | 880 nM | – | 99.7 µM |
| COc1ccc(N(C)C(=O)[C@H](Cc2ccccc2)NC(=O)NS(=O)(=O)Nc2ccc(NC(C)=O)cc2)cc1 [CA-17] | – | – | 1940 nM | – | > 100 µM |
| CN(C(=O)[C@H](Cc1cc(F)cc(F)c1)NC(=O)NS(=O)(=O)N1CCc2cccnc21)c1ccc2sc(=O)[nH]c2c1 [GW-5] | – | – | 320 nM | – | > 100 µM |
| CN(C(=O)[C@H](Cc1cc(F)cc(F)c1)NC(=O)N1CCN(C)S1(=O)=O)c1ccc2scnc2c1 [VN-28] | – | – | 250 nM | – | > 100 µM |
| COc1ccc(N(C)C(=O)[C@H](Cc2ccccc2)NC(=O)NS(=O)(=O)Nc2cccc(S(=O)(=O)N3CCOCC3)c2)cc1 [CA-47] | – | – | 2140 nM | – | > 100 µM |
| COc1ccc(N(C)C(=O)[C@H](Cc2ccccc2)NC(=O)NS(=O)(=O)N(C)Cc2n[nH]c(=O)[nH]2)cc1 [JB-69] | – | – | 3690 nM | – | > 100 µM |
| COc1ccc(N(C)C(=O)[C@H](Cc2ccccc2)NC(=O)NS(=O)(=O)Nc2cccc(-c3cnco3)c2)cc1 [CA-27] | – | – | 310 nM | – | > 100 µM |

| Compound | CC50 (uninfected MT2 cells) | EC50 [1, 3] | EC50 [1, 4] | EC50 [1, 5] | CC50 at 4 days [2] |
| --- | --- | --- | --- | --- | --- |
| COc1ccc(N(C)C(=O)[C@H](Cc2ccccc2)NC(=O)NS(=O)(=O)n2ccc3cccnc32)cc1 [JB-77] | – | – | 450 nM | – | > 100 µM |
| CC(C)Oc1ccc(N(C)C(=O)[C@H](Cc2cc(F)cc(F)c2)NC(=O)NS(=O)(=O)N2CCc3cccnc32)cn1 [BB-12] | – | – | 20 nM | – | 94.9 µM |
| COc1ccc(N(C)C(=O)[C@H](Cc2ccccc2)NC(=O)NS(=O)(=O)Nc2cc(C)cc(C)c2)cc1 [CA-14] | – | – | 120 nM | – | > 33.3 µM |
| COc1ccc(N(C)C(=O)[C@H](Cc2ccccc2)NC(=O)NS(=O)(=O)Nc2cccc(OC)c2)cc1 [JB-20] | – | – | 100 nM | – | > 100 µM |
| COc1ccc(N(C)C(=O)[C@H](Cc2ccccc2)NC(=O)NS(=O)(=O)Nc2ccc(-c3ccccc3)cc2)cc1 [CA-29] | – | – | 3260 nM | – | > 33.3 µM |
| COc1ccc(N(C)C(=O)[C@H](Cc2ccccc2)NC(=O)NS(=O)(=O)NCc2ccccn2)cc1 [JB-39] | – | – | 1380 nM | – | > 100 µM |
| COc1ccc(N(C)C(=O)[C@H](Cc2ccccc2)NC(=O)NS(=O)(=O)N(C)C)cc1 [JB-15] | – | – | 1920 nM | – | > 100 µM |
| Cc1ncc(N(C)C(=O)[C@H](Cc2cc(F)cc(F)c2)NC(=O)NS(=O)(=O)N2CCc3cccnc32)cn1 [GW-14] | – | – | 1610 nM | – | > 100 µM |
| CC1Cc2cccnc2N1S(=O)(=O)NC(=O)N[C@@H](Cc1cc(F)cc(F)c1)C(=O)N(C)c1ccc2scnc2c1 (single isomer, unassigned) [VN-7] | > 1 µM | 50 nM | – | – | – |
| CN(C)C(=O)C1Cc2cccnc2N1S(=O)(=O)NC(=O)N[C@@H](Cc1cc(F)cc(F)c1)C(=O)N(C)c1ccc2scnc2c1 (single isomer, unassigned) [BB-28] | – | 6050 nM | – | – | > 100 µM |
| COc1ccc(N(C)C(=O)[C@H](Cc2cc(F)cc(F)c2)NC(=O)NS(=O)(=O)N2CCc3c(Cl)ccnc32)cc1 [BB-4] | – | – | 420 nM | – | 61.9 µM |
| COc1ccc(N(C)C(=O)[C@H](Cc2ccccc2)NC(=O)NS(=O)(=O)N2Cc3ccccc3S2(=O)=O)cc1 [JB-79] | – | – | 8610 nM | – | > 100 µM |
| COc1ccc(N(C)C(=O)[C@H](Cc2ccccc2)NC(=O)NS(=O)(=O)NCc2cccc(-n3cccn3)c2)cc1 [JB-47] | – | – | 3410 nM | – | > 100 µM |
| COc1ccc(N(C)C(=O)[C@H](Cc2ccccc2)NC(=O)NS(=O)(=O)Nc2ccccc2NC(C)=O)cc1 [CA-42] | – | – | 4120 nM | – | > 100 µM |
| COc1ccc(N(C)C(=O)[C@H](Cc2ccccc2)NC(=O)NS(=O)(=O)Nc2cccc(-c3ccccc3)c2)cc1 [CA-37] | – | – | 1200 nM | – | > 33.3 µM |
| COc1ccc(N(C)C(=O)[C@H](Cc2ccccc2)NC(=O)NS(=O)(=O)n2c(C)cc3cc(F)c(O)cc32)cc1 [CA-65] | – | – | 4040 nM | – | > 100 µM |
| COc1ccc(N(C)C(=O)[C@H](Cc2ccccc2)NC(=O)NS(=O)(=O)Nc2cc(Cl)cc(Cl)c2)cc1 [CA-49] | – | – | 180 nM | – | > 33.3 µM |
| COc1ccc(N(C)C(=O)[C@H](Cc2ccccc2)NC(=O)NS(=O)(=O)N(C)c2cccc(OC)c2)cc1 [JB-34] | – | – | 80 nM | – | > 100 µM |
| COc1ccc(N(C)C(=O)[C@H](Cc2ccccc2)NC(=O)NS(=O)(=O)NCc2n[nH]c3ccccc23)cc1 [JB-66] | > 100 µM | – | – | 1180 nM | – |
| CN(C(=O)[C@H](Cc1cc(F)cc(F)c1)NC(=O)NS(=O)(=O)N1CCCc2cccnc21)c1ccc2scnc2c1 [VN-9] | – | – | 10 nM | – | > 100 µM |
| COc1ccc(N(C)C(=O)[C@H](Cc2ccccc2)NC(=O)NS(=O)(=O)n2c(C)cc3ccncc32)cc1 [CA-62] | – | – | 3690 nM | – | > 100 µM |
